Reference: US11452718B2 (AVALYN PHARMA INC., priority 2012, dated 2022)
Several values for one entry are separate records, joined by “and”; a condition that tells them apart may be missing. Equal entries are not always repeated. Where two headings read alike, the source gives them in different places.

Columns and labels:
[1] = Modeled human inhaled aerosol pirfenidone pharmacokinetics (FIG. 2, FIG. 5, Table 28)
Method: Aerosol deliver parameters for the FIGS. 2 and 5 models were based on high-efficiency, mesh-based nebulizer characterization (Table 12). […] Respirable delivered dose (RDD) calculated by the product of fine particle fraction (FPF, %<5 microns) and inhaled mass. […] This later dose was modeled to be delivered in 1 minute.

[2] = cited from earlier work; for oral Cmax / Cmax: IPF patients; for Cmax: read-out: oral Cmax
[3] = in vivo; cited from earlier work
[4] = Stability assessment of pirfenidone formulations at 25° C./60RH and 40° C./75RH; type: physicochemical; conditions: for Measured Pirfenidone / mOsmol/kg / pH: time zero
Method: The sample was agitated until completely dissolved. Once dissolved, samples were filtered via syringe through a 0.22 μm PVDF filter.
Samples were refrigerated to reduce evaporative loss of volatile co-solvents (ethanol) during filtration and dispensing. An approximate 5.0-mL aliquot of each formulation was transferred to class A glass 6 ml containers with suitable closures (20 mm stopper). At least 8 containers are being maintained in the upright orientation at 25° C./60RH, and another 8 containers maintained at 40° C./75RH.

[5] = Intravenous push of pirfenidone to a mouse: plasma and lung levels; type: in vivo; conditions: 40 mg/kg intravenous dose; blood about 40% of wet lung weight
Method: Exemplary Lung Tissue Delivery Assumptions: • 1. The total wet weight of the adult human lung is about 685 to 1,050 grams (for calculations, conservatively about […]); • 2. The adult human lung blood volume is about 450 mL; • 3. The tissue weight of the adult human lung is conservatively 1,050 grams wet weight minus 450 mL blood weight (assuming density of 1.0), equals 600 grams; • 4. […] The inhaled route of administration is dependent upon a respirable delivered dose (RDD). The RDD is the fraction of drug inhaled in aerosol particles less than 5 microns in diameter; • 7. RDD of typical dry powder, liquid nebulization or meter-dose inhalation devices ranges from 10% to 70%. Higher and lower efficiency devices with RDDs greater than 70% and less than 10% also exist; • 8. […] From the above observations and calculations, the lower limit of efficacy in lung tissue is 8 mcg/gram; and • 10.

[6] = test system: CYP2C9, 2C19, 2D6, and 2E1; conditions: hepatic microsomes; cited from earlier work
[7] = 25° C./60% RH, 5 mM phosphate buffer pH 6.5 plus 1% (v/v) EtOH, 2% (v/v) PG, target pirfenidone 1 mg/mL
[8] = 25° C./60% RH, 5 mM phosphate buffer pH 6.5 plus 1% (v/v) EtOH, 2% (v/v) PG, target pirfenidone 15 mg/mL
[9] = 25° C./60% RH, 5 mM phosphate buffer pH 6.5 plus 4% (v/v) EtOH, 8% (v/v) PG, target pirfenidone 23 mg/mL
[10] = 25° C./60% RH, 5 mM phosphate buffer pH 6.5 plus 6% (v/v) EtOH, 12% (v/v) PG, target pirfenidone 30 mg/mL
[11] = 25° C./60% RH, 5 mM phosphate buffer pH 6.5 plus 8% (v/v) EtOH, 16% (v/v) PG, target pirfenidone 1 mg/mL
[12] = 25° C./60% RH, 5 mM phosphate buffer pH 6.5 plus 8% (v/v) EtOH, 16% (v/v) PG, target pirfenidone 38 mg/mL
[13] = 40° C./75% RH, 5 mM phosphate buffer pH 6.5 plus 1% (v/v) EtOH, 2% (v/v) PG, target pirfenidone 1 mg/mL
[14] = 40° C./75% RH, 5 mM phosphate buffer pH 6.5 plus 1% (v/v) EtOH, 2% (v/v) PG, target pirfenidone 15 mg/mL
[15] = 40° C./75% RH, 5 mM phosphate buffer pH 6.5 plus 4% (v/v) EtOH, 8% (v/v) PG, target pirfenidone 23 mg/mL
[16] = 40° C./75% RH, 5 mM phosphate buffer pH 6.5 plus 6% (v/v) EtOH, 12% (v/v) PG, target pirfenidone 30 mg/mL
[17] = 40° C./75% RH, 5 mM phosphate buffer pH 6.5 plus 8% (v/v) EtOH, 16% (v/v) PG, target pirfenidone 1 mg/mL
[18] = 40° C./75% RH, 5 mM phosphate buffer pH 6.5 plus 8% (v/v) EtOH, 16% (v/v) PG, target pirfenidone 38 mg/mL
[19] = 5 mM phosphate buffer pH 6.5 plus 1% (v/v) EtOH, 2% (v/v) PG, target pirfenidone 1 mg/mL
[20] = 5 mM phosphate buffer pH 6.5 plus 1% (v/v) EtOH, 2% (v/v) PG, target pirfenidone 15 mg/mL
[21] = 5 mM phosphate buffer pH 6.5 plus 4% (v/v) EtOH, 8% (v/v) PG, target pirfenidone 23 mg/mL
[22] = 5 mM phosphate buffer pH 6.5 plus 6% (v/v) EtOH, 12% (v/v) PG, target pirfenidone 30 mg/mL
[23] = 5 mM phosphate buffer pH 6.5 plus 8% (v/v) EtOH, 16% (v/v) PG, target pirfenidone 1 mg/mL
[24] = 5 mM phosphate buffer pH 6.5 plus 8% (v/v) EtOH, 16% (v/v) PG, target pirfenidone 38 mg/mL

Cc1ccc(=O)n(-c2ccccc2)c1 [pirfenidone, 5-methyl-1-phenyl-2-(1H)-pyridone]
lung tissue Cmax compared to the 801 mg oral pirfenidone dose ([1]; 2.5 mg RDD inhaled over 1 minute, human model): equivalent | possible achieved human lung tissue Cmax ([1]; 29 mg RDD, 3 minute tidal-inhaled nebulized dose): 43.2 mcg/gram lung tissue | plasma AUC compared to the 801 mg oral pirfenidone dose ([1]; 120 mg RDD inhaled over 5 minutes, human model): equivalent | duration of plasma level at or greater than 5 mcg/mL ([2]; 801 mg oral pirfenidone): 4 h | oral Cmax ([2]; fasting-state): about 15.7 mcg/mL | Cmax ([2]; fasting-state): ~84 µM | oral Cmax ([2]; recommended fed-state): about 7.9 mcg/mL | Cmax ([2]; recommended fed-state): ~42 µM | change in Tmax by food ([2]; oral, fed-state): seven-fold increase | reduction in Cmax by food ([2]; oral, fed-state): ~50% | reduction in overall exposure (AUC) by food ([2]; oral, fed-state): 10-15% and ~20% | administered dose excreted in the urine [3]: about 80% | Pirfenidone (mg/mL) at Time = 0 [4, 7]: 1.0 mg/mL | Pirfenidone (mg/mL) at Time = 1 month [4, 7]: 1.0 mg/mL | Pirfenidone (mg/mL) at Time = 3 month [4, 7]: 1.0 mg/mL | Pirfenidone (mg/mL) at Time = 6 month [4, 7]: 1.0 mg/mL | Pirfenidone (mg/mL) at Time = 0 [4, 8]: 16.1 mg/mL | Pirfenidone (mg/mL) at Time = 1 month [4, 8]: 15.1 mg/mL | Pirfenidone (mg/mL) at Time = 3 month [4, 8]: 14.9 mg/mL | Pirfenidone (mg/mL) at Time = 6 month [4, 8]: 15.4 mg/mL | Pirfenidone (mg/mL) at Time = 0 [4, 9]: 24.1 mg/mL | Pirfenidone (mg/mL) at Time = 1 month [4, 9]: 22.1 mg/mL | Pirfenidone (mg/mL) at Time = 3 month [4, 9]: 22.3 mg/mL | Pirfenidone (mg/mL) at Time = 6 month [4, 9]: 23.2 mg/mL | Pirfenidone (mg/mL) at Time = 0 [4, 10]: 30.3 mg/mL | Pirfenidone (mg/mL) at Time = 1 month [4, 10]: 30.1 mg/mL | Pirfenidone (mg/mL) at Time = 3 month [4, 10]: 29.6 mg/mL | Pirfenidone (mg/mL) at Time = 6 month [4, 10]: 31.0 mg/mL | Pirfenidone (mg/mL) at Time = 0 [4, 11]: 1.0 mg/mL | Pirfenidone (mg/mL) at Time = 1 month [4, 11]: 1.0 mg/mL | Pirfenidone (mg/mL) at Time = 3 month [4, 11]: 1.0 mg/mL | Pirfenidone (mg/mL) at Time = 6 month [4, 11]: 1.0 mg/mL | Pirfenidone (mg/mL) at Time = 0 [4, 12]: 38.9 mg/mL | Pirfenidone (mg/mL) at Time = 1 month [4, 12]: 38.3 mg/mL | Pirfenidone (mg/mL) at Time = 3 month [4, 12]: 38.0 mg/mL | Pirfenidone (mg/mL) at Time = 6 month [4, 12]: 39.2 mg/mL | Pirfenidone (mg/mL) at Time = 0 [4, 13]: 1.0 mg/mL | Pirfenidone (mg/mL) at Time = 1 month [4, 13]: 1.0 mg/mL | Pirfenidone (mg/mL) at Time = 3 month [4, 13]: 1.0 mg/mL | Pirfenidone (mg/mL) at Time = 6 month [4, 13]: 1.0 mg/mL | Pirfenidone (mg/mL) at Time = 0 [4, 14]: 16.1 mg/mL | Pirfenidone (mg/mL) at Time = 1 month [4, 14]: 15.1 mg/mL | Pirfenidone (mg/mL) at Time = 3 month [4, 14]: 14.8 mg/mL | Pirfenidone (mg/mL) at Time = 6 month [4, 14]: 15.5 mg/mL | Pirfenidone (mg/mL) at Time = 0 [4, 15]: 24.1 mg/mL | Pirfenidone (mg/mL) at Time = 1 month [4, 15]: 22.4 mg/mL | Pirfenidone (mg/mL) at Time = 3 month [4, 15]: 22.1 mg/mL | Pirfenidone (mg/mL) at Time = 6 month [4, 15]: 23.3 mg/mL | Pirfenidone (mg/mL) at Time = 0 [4, 16]: 30.3 mg/mL | Pirfenidone (mg/mL) at Time = 1 month [4, 16]: 30.3 mg/mL | Pirfenidone (mg/mL) at Time = 3 month [4, 16]: 30.0 mg/mL | Pirfenidone (mg/mL) at Time = 6 month [4, 16]: 31.1 mg/mL | Pirfenidone (mg/mL) at Time = 0 [4, 17]: 1.0 mg/mL | Pirfenidone (mg/mL) at Time = 1 month [4, 17]: 1.0 mg/mL | Pirfenidone (mg/mL) at Time = 3 month [4, 17]: 1.0 mg/mL | Pirfenidone (mg/mL) at Time = 6 month [4, 17]: 1.0 mg/mL | Pirfenidone (mg/mL) at Time = 0 [4, 18]: 38.9 mg/mL | Pirfenidone (mg/mL) at Time = 1 month [4, 18]: 38.4 mg/mL | Pirfenidone (mg/mL) at Time = 3 month [4, 18]: 38.0 mg/mL | Pirfenidone (mg/mL) at Time = 6 month [4, 18]: 37.9 mg/mL | Measured Pirfenidone [4, 19]: 1.0 mg/mL | mOsmol/kg [4, 19]: 452 mOsmol/kg | pH [4, 19]: 6.69 | Measured Pirfenidone [4, 20]: 16.1 mg/mL | mOsmol/kg [4, 20]: 512 mOsmol/kg | pH [4, 20]: 6.65 | Measured Pirfenidone [4, 21]: 24.1 mg/mL | pH [4, 21]: 6.78 | Measured Pirfenidone [4, 22]: 30.3 mg/mL | mOsmol/kg [4, 22]: 2863 mOsmol/kg | pH [4, 22]: 6.90 | Measured Pirfenidone [4, 23]: 1.0 mg/mL | mOsmol/kg [4, 23]: 3590 mOsmol/kg | pH [4, 23]: 6.98 | Measured Pirfenidone [4, 24]: 38.9 mg/mL | mOsmol/kg [4, 24]: 3750 mOsmol/kg | pH [4, 24]: 7.04 | lung tissue level after subtracting blood contribution [5]: about 8 mcg/g | contribution of each isoenzyme to metabolism [6]: less than 13%
